Assay results reported in article PMC12195738 (Pharmaceuticals, 2025).
Where two headings read alike, the source gives them in different places.

How the values were obtained:
[1] = Ex vivo permeation across porcine nasal mucosa in Franz diffusion cells; type: in vitro ADME, Sus scrofa domesticus; conditions: pig
Protocol: (§1) Nasal mucosa tissues were carefully dissected from the lower turbinates within the nasal cavity. Immediately after excision, the tissues were immersed in chilled DPBS to prevent desiccation and to preserve structural integrity. The samples were then cut into appropriate sizes, and mucosal thickness was measured using an electronic digital caliper (Fisher Scientific, Waltham, MA, USA) as described in previous work. […] The nasal mucosa was mounted between the donor and receptor chambers, with the epithelial side facing the donor compartment. DPBS was used as the receptor medium and maintained at 37 ± 0.5 °C under continuous stirring at 600 rpm. At predetermined time points (0.5, 1, 2, 3, 4, 5, 6, 7, and 8 h), 0.5 mL of sample was withdrawn from the receptor compartment and immediately replaced with fresh DPBS to maintain sink conditions. The melatonin loading solution was prepared by dissolving an appropriate amount of melatonin powder in 5 mL of DPBS, stirring for 15 min, and filtering through a 0.2 µm nylon membrane filter (Fisher Scientific, Waltham, MA, USA). […] At the start of the experiment, 0.5 mL of melatonin loading solution was added to the donor compartment. Receptor samples collected at each time point were mixed with an equal volume of acetonitrile, vortexed, and centrifuged (AccuSpin Micro17, Fisher Scientific, Waltham, MA, USA) at 10,000× g for 20 min. The resulting supernatants were collected for HPLC analysis. […] Receptor samples collected at each time point were centrifuged (AccuSpin Micro17, Fisher Scientific, Waltham, MA, USA) directly at 10,000× g for 20 min. The supernatants were collected for microplate reader (SpectraMax iD5, Molecular Devices, San Jose, CA, USA) analysis. The permeation curve is reported as percentage of drug permeated and was computationally corrected for the withdrawn volume using an Excel (Microsoft, Redmond, WA, USA) add-in program DDSolver 1.0 [53]. Papp were calculated as described in previous work. Numerical simulations were performed using COMSOL Multiphysics® version 6.2 (COMSOL Inc., Burlington, MA, USA), following the methodology established in our previous study. The simulations were based on Fick’s law of diffusion, describing solute concentration changes over time and space within a defined three-dimensional geometry. The “Transport of Diluted Species” physics interface was employed to simulate drug diffusion dynamics, while adsorption effects were incorporated to account for drug retention within the nasal mucosa. […] To address this, the simulation model was first fitted to experimentally obtained permeation profiles to extract key transport parameters. These parameters were subsequently used to normalize each permeation curve to a standardized mucosal thickness of 0.80 mm. Thickness correction minimized the impact of variability and enabled more accurate and consistent comparisons across experimental conditions.

[2] = tested on: porcine nasal mucosa; experiment: Flu-Na permeability across IPA-damaged porcine nasal mucosa (Franz diffusion cells); type: in vitro ADME, Sus scrofa domesticus
Protocol: To systematically investigate this issue, nasal mucosa tissues harvested from the same pig were immersed in 10%, 50%, or 100% IPA for 30 min to induce graded levels of chemical damage. A parallel control sample was incubated in DPBS under identical conditions. Flu-Na permeability was then measured as an indicator of mucosal integrity. This experiment was independently repeated in tissues from three different pigs to ensure reproducibility. Representative images of nasal mucosa following IPA-induced damage are shown in Figure 9, and the corresponding Papp values, normalized to a standardized mucosal thickness of 0.80 mm, are presented in Figure 10.
Tissues obtained from the same pig were used to evaluate the effects of different IPA concentrations and the DPBS control within a single experimental set. To ensure reproducibility, the entire experiment was independently repeated using tissues from three different pigs.
For each experimental set, three pieces of nasal mucosa tissue from the same pig were submerged in 3 mL of IPA at concentrations of 10%, 50%, or 100% for 30 min to induce graded levels of epithelial damage. A parallel control tissue sample from the same pig was submerged in 3 mL of DPBS under identical conditions. Following exposure, all tissues were thoroughly rinsed with DPBS to remove residual solvent and were immediately mounted in Franz diffusion cells for permeability testing.
Nasal mucosal permeability was evaluated using a Phoenix™ DB-6 Franz diffusion system (Teledyne Hanson Research, Los Angeles, CA, USA), equipped with a diffusion area of 1.0 cm^2 and a receptor volume of 10 mL. The nasal mucosa was mounted between the donor and receptor chambers, with the epithelial side facing the donor compartment. […]
The Flu-Na loading solution was prepared at a fixed concentration of 1 mg/mL by dissolving 25 mg of Flu-Na in 25 mL of DPBS using volumetric flasks. […] The supernatants were collected for microplate reader (SpectraMax iD5, Molecular Devices, San Jose, CA, USA) analysis.

[3] = Shake-flask log D (n-octanol/DPBS); type: physicochemical; conditions: pH increased from 6.0 to 10.0
Protocol: Equal volumes of n-octanol and DPBS were mixed and shaken at room temperature for 24 h using an incubator shaker (Lab-Line Instruments, Inc., Melrose Park, IL, USA) to achieve mutual saturation. The pre-saturated n-octanol and DPBS phases were then carefully transferred into separate centrifuge tubes and centrifuged (Centrifuge 5430 R, Eppendorf AG, Hamburg, Germany) at 5000× g for 20 min to ensure complete phase separation.
Flu-Na solutions were prepared at a final concentration of 1 mg/mL by dissolving Flu-Na in pre-saturated DPBS, followed by pH adjustment to approximately 6, 7, 8, 9, and 10 using sodium hydroxide or hydrochloric acid solutions. […]
The concentrations of Flu-Na in both phases were measured at 492 nm using the microplate reader (SpectraMax iD5, Molecular Devices, San Jose, CA, USA). Calibration curve standards were prepared using DPBS adjusted to the corresponding pH values to ensure accurate quantification under each condition. The log D was calculated as the base-10 logarithm of the concentration ratio between the n-octanol phase and the aqueous phase.

[4] = Visual appearance of Flu-Na solutions at different pH values; type: physicochemical; conditions: 1 mg/mL, pH 4.85
Protocol: Solutions were prepared at a concentration of 1 mg/mL, and visual appearance was recorded after pH adjustment.

[5] = set-up: method as in PMID 9232516; conditions: reported in the literature; cited from earlier work
[6] = set-up: method as in doi:10.2343/geochemj.2.0226; conditions: cited from earlier work
[7] = tested on: porcine nasal mucosa; experiment: Ex vivo permeation across porcine nasal mucosa in Franz diffusion cells; type: in vitro ADME, Sus scrofa domesticus
Protocol: as §1

[8] = different-pig (inter-individual) group, n = 3, simulation-based normalization, read-out: mean Papp after normalization to standardized thickness of 0.80 mm
[9] = same-pig (intra-individual) group, n = 3, simulation-based normalization, read-out: mean Papp after normalization to standardized thickness of 0.80 mm

SMILES	Papp at 8 h [1, 8]	Papp at 8 h [1, 9]	Flu-Na permeability (Papp) vs DPBS negative control, preliminary study ([2]; 10% IPA as positive control, groups from different donor pigs, unpublished data)	trend of Papp values with IPA concentration ([2]; escalating IPA concentrations (10%, 50%, and 100%), 30 min)	Flu-Na permeability (Papp) vs DPBS negative control ([2]; mucosa immersed in 10% IPA for 30 min, same pig, normalized to 0.80 mm, three pigs)	log D (shake-flask), pH dependency [3]	visual appearance of solution [4]	log P [5]	log P ([6]; pH 4.29)	log P ([6]; pH 7.5)	Papp at 8 h ([1]; different-pig (inter-individual) group, n = 3, 8 h Franz diffusion, read-out: mean Papp before thickness normalization)	Papp at 8 h, 1008 μg/mL ([1]; same-pig (intra-individual) group, n = 3, 8 h Franz diffusion, read-out: mean Papp before thickness normalization)	decrease of CV of Papp by normalization ([7]; different-pig group)	decrease of CV of Papp by normalization ([7]; same-pig group)
O=C([O-])c1ccccc1-c1c2ccc(=O)cc-2oc2cc([O-])ccc12.[Na+].[Na+] [Flu-Na, Fluorescein sodium salt]	7.33 ± 1.6 ×10⁻⁶ cm/s	5.28 ± 0.18 ×10⁻⁶ cm/s	paradoxical decrease	general trend of increasing Papp values	lower	progressively more negative	precipitation observed	−0.67 to −1.52	–	–	–	–	–	–
O=C1OC2(c3ccc(O)cc3Oc3cc(O)ccc32)c2ccccc21 [fluorescein]	–	–	–	–	–	–	–	–	approximately 2.78	−0.08	–	–	–	–
COc1ccc2[nH]cc(CCNC(C)=O)c2c1 [melatonin, Melatonin]	10.5 ± 0.42 ×10⁻⁶ cm/s	10 ± 0.78 ×10⁻⁶ cm/s	–	–	–	–	–	–	–	–	14.6 ± 1.42 ×10⁻⁶ cm/s	14.1 ± 3.47 ×10⁻⁶ cm/s	5.7%	16.8%
